Test results reported in patent US20230125667A1, “NOVEL TDZD ANALOGS AS AGENTS THAT DELAY, PREVENT, OR REVERSE AGE-ASSOCIATED DISEASES AND AS ANTI-CANCER AND ANTILEUKEMIC AGENTS” (United States Government as represented by the Department …, priority 2020, published 2023).
Like-named read-outs stand apart in the source and are kept apart here.

Legend:
[1] = test system: MV4-11 cell line (myelomonocytic leukemia); settings: MV4-11 cells
SF-539 = test: NCI-60 growth inhibition: SF-539 (CNS Cancer); format: cell-based, human; settings: Homo sapiens
SNB-19 = test: NCI-60 growth inhibition: SNB-19 (CNS Cancer); format: cell-based, human; settings: Homo sapiens
NCI-H522 = test: NCI-60 growth inhibition: NCI-H522 (Non-Small-Cell Lung Cancer); settings: Homo sapiens, NCI-H522
OVCAR-3 = test: NCI-60 growth inhibition: OVCAR-3 (Ovarian Cancer); format: cell-based, human; settings: Homo sapiens
SW-620 = test: NCI-60 growth inhibition: SW-620 (Colon Cancer); format: cell-based, human; settings: Homo sapiens
K-562 = test: NCI-60 growth inhibition: K-562 (Leukemia); format: cell-based, human; settings: Homo sapiens, K562
SN12C = test: NCI-60 growth inhibition: SN12C (Renal Cancer); format: cell-based, human; settings: Homo sapiens
TK-10 = test: NCI-60 growth inhibition: TK-10 (Renal Cancer); format: cell-based, human; settings: Homo sapiens
ACHN = test: NCI-60 growth inhibition: ACHN (Renal Cancer); format: cell-based, human; settings: Homo sapiens
HCT-116 = test: NCI-60 growth inhibition: HCT-116 (Colon Cancer); settings: Homo sapiens, HCT-116
CAKI-1 = test: NCI-60 growth inhibition: CAKI-1 (Renal Cancer); format: cell-based, human; settings: Homo sapiens
A498 = test: NCI-60 growth inhibition: A498 (Renal Cancer); format: cell-based, human; settings: Homo sapiens
MDA-MB-231/ATCC = test: NCI-60 growth inhibition: MDA-MB-231/ATCC (Breast Cancer); format: cell-based, human; settings: Homo sapiens
SF-268 = test: NCI-60 growth inhibition: SF-268 (CNS Cancer); format: cell-based, human; settings: Homo sapiens
OVCAR-8 = test: NCI-60 growth inhibition: OVCAR-8 (Ovarian Cancer); format: cell-based, human; settings: Homo sapiens
UO-31 = test: NCI-60 growth inhibition: UO-31 (Renal Cancer); format: cell-based, human; settings: Homo sapiens
MCF7 = test: NCI-60 growth inhibition: MCF7 (Breast Cancer); format: cell-based, human; settings: Homo sapiens
DU-145 = test: NCI-60 growth inhibition: DU-145 (Prostate Cancer); format: cell-based, human; settings: Homo sapiens
CCRF-CEM = test: NCI-60 growth inhibition: CCRF-CEM (Leukemia); format: cell-based, human; settings: Homo sapiens
PC-3 = test: NCI-60 growth inhibition: PC-3 (Prostate Cancer); format: cell-based, human; settings: Homo sapiens
MALME-3M = test: NCI-60 growth inhibition: MALME-3M (Melanoma); format: cell-based, human; settings: Homo sapiens
UACC-257 = test: NCI-60 growth inhibition: UACC-257 (Melanoma); format: cell-based, human; settings: Homo sapiens
U251 = test: NCI-60 growth inhibition: U251 (CNS Cancer); format: cell-based, human; settings: Homo sapiens, U-251
HOP-92 = test: NCI-60 growth inhibition: HOP-92 (Non-Small-Cell Lung Cancer); format: cell-based, human; settings: Homo sapiens
IGROV1 = test: NCI-60 growth inhibition: IGROV1 (Ovarian Cancer); format: cell-based, human; settings: Homo sapiens, IGROV-1
NCI-H460 = test: NCI-60 growth inhibition: NCI-H460 (Non-Small-Cell Lung Cancer); format: cell-based, human; settings: Homo sapiens
HS 578T = test: NCI-60 growth inhibition: HS 578T (Breast Cancer); format: cell-based, human; settings: Homo sapiens
LOX IMVI = test: NCI-60 growth inhibition: LOX IMVI (Melanoma); format: cell-based, human; settings: Homo sapiens
RXF 393 = test: NCI-60 growth inhibition: RXF 393 (Renal Cancer); format: cell-based, human; settings: Homo sapiens
OVCAR-4 = test: NCI-60 growth inhibition: OVCAR-4 (Ovarian Cancer); format: cell-based, human; settings: Homo sapiens
SK-MEL-2 = test: NCI-60 growth inhibition: SK-MEL-2 (Melanoma); format: cell-based, human; settings: Homo sapiens
OVCAR-5 = test: NCI-60 growth inhibition: OVCAR-5 (Ovarian Cancer); format: cell-based, human; settings: Homo sapiens
EKVX = test: NCI-60 growth inhibition: EKVX (Non-Small-Cell Lung Cancer); format: cell-based, human; settings: Homo sapiens
SK-MEL-28 = test: NCI-60 growth inhibition: SK-MEL-28 (Melanoma); format: cell-based, human; settings: Homo sapiens
MOLT-4 = test: NCI-60 growth inhibition: MOLT-4 (Leukemia); format: cell-based, human; settings: Homo sapiens
BT-549 = test: NCI-60 growth inhibition: BT-549 (Breast Cancer); format: cell-based, human; settings: Homo sapiens
UACC-62 = test: NCI-60 growth inhibition: UACC-62 (Melanoma); format: cell-based, human; settings: Homo sapiens
HT29 = test: NCI-60 growth inhibition: HT29 (Colon Cancer); format: cell-based, human; settings: Homo sapiens, HT-29
T-47D = test: NCI-60 growth inhibition: T-47D (Breast Cancer); format: cell-based, human; settings: Homo sapiens, T47D
MDA-MB-468 = test: NCI-60 growth inhibition: MDA-MB-468 (Breast Cancer); format: cell-based, human; settings: Homo sapiens; MDA-MB-468 (Breast Cancer); read-out: GI50
786-0 = test: NCI-60 growth inhibition: 786-0 (Renal Cancer); format: cell-based, human; settings: Homo sapiens
MDA-MB-435 = test: NCI-60 growth inhibition: MDA-MB-435 (Melanoma); format: cell-based, human; settings: Homo sapiens
SK-MEL-5 = test: NCI-60 growth inhibition: SK-MEL-5 (Melanoma); format: cell-based, human; settings: Homo sapiens
COLO 205 = test: NCI-60 growth inhibition: COLO 205 (Colon Cancer); format: cell-based, human; settings: Homo sapiens
HCT-15 = test: NCI-60 growth inhibition: HCT-15 (Colon Cancer); format: cell-based, human; settings: Homo sapiens
M14 = test: NCI-60 growth inhibition: M14 (Melanoma); format: cell-based, human; settings: Homo sapiens
RPMI-8226 = test: NCI-60 growth inhibition: RPMI-8226 (Leukemia); format: cell-based, human; settings: Homo sapiens
NCI-H23 = test: NCI-60 growth inhibition: NCI-H23 (Non-Small-Cell Lung Cancer); format: cell-based, human; settings: Homo sapiens
[2] = Ibuprofen-TDZD analogs (Table 3)

## CCCCn1sc(=O)n(Cc2ccc(CNC(=O)C(C)c3ccc(CC(C)C)cc3)cc2)c1=O (stereo not shown) [BSK-238]
[1]; [2]
  LD50, 7AAD (μM) 24 h: 11.2 µM
  LD50, Alamar blue (μM) 24 h: 10.00 µM
  LD50, YOPRO (μM) 24 h: 10.9 µM

## C=C1C(=O)O[C@H]2[C@H]1CC/C(COC(=O)NCc1ccc(Cn3c(=O)sn(CCI)c3=O)cc1)=C\CC[C@@]1(C)O[C@@H]21 [BSK-187]
SF-539
  GI50: 1720 nM
SNB-19
  GI50: 6880 nM
NCI-H522
  GI50: 1720 nM
OVCAR-3
  GI50: 1640 nM
SW-620
  GI50: 1660 nM
K-562
  GI50: 650 nM
SN12C
  GI50: 2160 nM
TK-10
  GI50: 1910 nM
ACHN
  GI50: 1890 nM
HCT-116
  GI50: 1760 nM
[1]; MMB-TDZD analogs (Table 2)
  LD50, 7AAD (μM) 24 h: 2.37 µM
  LD50, Alamar blue (μM) 24 h: 1.0 µM
  LD50, YOPRO (μM) 24 h: 1.21 µM
CAKI-1
  GI50: 3790 nM
A498
  GI50: 4440 nM
MDA-MB-231/ATCC
  GI50: 1770 nM
SF-268
  GI50: 2410 nM
OVCAR-8
  GI50: 4550 nM
UO-31
  GI50: 1650 nM
MCF7
  GI50: 1710 nM
DU-145
  GI50: 1820 nM
CCRF-CEM
  GI50: 500 nM
PC-3
  GI50: 1750 nM
MALME-3M
  GI50: 1680 nM
UACC-257
  GI50: 2240 nM
U251
  GI50: 4670 nM
HOP-92
  GI50: 1380 nM
IGROV1
  GI50: 2080 nM
NCI-H460
  GI50: 6420 nM
HS 578T
  GI50: 7290 nM
LOX IMVI
  GI50: 1690 nM
RXF 393
  GI50: 1610 nM
OVCAR-4
  GI50: 2020 nM
SK-MEL-2
  GI50: 11700 nM
OVCAR-5
  GI50: 3280 nM
EKVX
  GI50: 2110 nM
SK-MEL-28
  GI50: 2060 nM
MOLT-4
  GI50: 1350 nM
BT-549
  GI50: 2400 nM
UACC-62
  GI50: 1980 nM
HT29
  GI50: 2100 nM
T-47D
  GI50: 1320 nM
MDA-MB-468
  GI50: 1250 nM
786-0
  GI50: 1820 nM
MDA-MB-435
  GI50: 2450 nM
SK-MEL-5
  GI50: 5370 nM
COLO 205
  GI50: 1860 nM
HCT-15
  GI50: 1910 nM
M14
  GI50: 1820 nM
RPMI-8226
  GI50: 1980 nM
NCI-H23
  GI50: 3460 nM

## COc1ccc(-n2sc(=O)n(Cc3ccc(CNC(=O)C(C)c4ccc(CC(C)C)cc4)cc3)c2=O)cc1 (stereo not shown) [BSK-270]
[1]; [2]
  LD50, 7AAD (μM) 24 h: 8.21 µM
  LD50, Alamar blue (μM) 24 h: 9.00 µM
  LD50, YOPRO (μM) 24 h: 6.14 µM

## CC(C)Cc1ccc(C(C)C(=O)NCc2ccc(Cn3c(=O)sn(CCCCl)c3=O)cc2)cc1 (stereo not shown) [BSK-236]
[1]; [2]
  LD50, 7AAD (μM) 24 h: 1.75 µM
  LD50, Alamar blue (μM) 24 h: 2.50 µM
  LD50, YOPRO (μM) 24 h: 1.77 µM

## CC(C)Cc1ccc(C(C)C(=O)NCc2ccc(Cn3c(=O)sn(CCI)c3=O)cc2)cc1 (stereo not shown) [BSK-265]
[1]; [2]
  LD50, 7AAD (μM) 24 h: 2.71 µM
  LD50, Alamar blue (μM) 24 h: 2.50 µM
  LD50, YOPRO (μM) 24 h: 2.87 µM

## CC(C)Cc1ccc(C(C)C(=O)NCc2ccc(Cn3c(=O)sn(-c4ccc(Cl)cc4)c3=O)cc2)cc1 (stereo not shown) [BSK-266]
[1]; [2]
  LD50, 7AAD (μM) 24 h: 10.7 µM
  LD50, Alamar blue (μM) 24 h: 12.00 µM
  LD50, YOPRO (μM) 24 h: 10.6 µM

## C=C1C(=O)O[C@H]2[C@H]1CC/C(COC(=O)NCc1ccc(Cn3c(=O)sn(-c4ccc(Cl)cc4)c3=O)cc1)=C\CC[C@@]1(C)O[C@@H]21 [BSK-268]
[1]; MMB-TDZD analogs (Table 2)
  LD50, 7AAD (μM) 24 h: 0.55 µM
  LD50, Alamar blue (μM) 24 h: 0.63 µM
  LD50, YOPRO (μM) 24 h: 0.68 µM
[1]; values in text
  LD50: 130 nM

## CC(C)Cc1ccc(C(C)C(=O)NCc2ccc(Cn3c(=O)sn(CCCI)c3=O)cc2)cc1 (stereo not shown) [BSK-260]
[1]; [2]
  LD50, 7AAD (μM) 24 h: 1.42 µM
  LD50, Alamar blue (μM) 24 h: 1.49 µM
  LD50, YOPRO (μM) 24 h: 1.48 µM

## CCCCCn1sc(=O)n(Cc2ccc(CNC(=O)C(C)c3ccc(CC(C)C)cc3)cc2)c1=O (stereo not shown) [BSK-235]
[1]; [2]
  LD50, 7AAD (μM) 24 h: 2.54 µM
  LD50, Alamar blue (μM) 24 h: 3.50 µM
  LD50, YOPRO (μM) 24 h: 3.2 µM

## CC(C)Cc1ccc(C(C)C(=O)NCc2ccc(Cn3c(=O)sn(-c4ccc(C#N)cc4)c3=O)cc2)cc1 (stereo not shown) [BSK-267]
[1]; [2]
  LD50, 7AAD (μM) 24 h: 14.8 µM
  LD50, Alamar blue (μM) 24 h: 12.00 µM
  LD50, YOPRO (μM) 24 h: 17.3 µM

## Cn1sc(=O)n(Cc2ccccc2)c1=O [TDZD-8, 4-benzyl, 2-methyl, 1,2,4-thiadiazolidine, 3,5 dione, reference compound]
[1]; [2]
  LD50, 7AAD (μM) 24 h: 3.61 µM
  LD50, Alamar blue (μM) 24 h: 4.5 µM
  LD50, YOPRO (μM) 24 h: 3.29 µM
[1]; MMB-TDZD analogs (Table 2)
  LD50, 7AAD (μM) 24 h: 3.61 µM
  LD50, Alamar blue (μM) 24 h: 4.5 µM
  LD50, YOPRO (μM) 24 h: 3.29 µM

## CC(C)Cc1ccc(C(C)C(=O)NCc2ccc(Cn3c(=O)sn(-c4ccccc4)c3=O)cc2)cc1 (stereo not shown) [BSK-239]
[1]; [2]
  LD50, 7AAD (μM) 24 h: 4.91 µM
  LD50, Alamar blue (μM) 24 h: 4.70 µM
  LD50, YOPRO (μM) 24 h: 4.24 µM

## C=C1C(=O)O[C@H]2[C@H]1CC/C(COC(=O)NCc1ccc(Cn3c(=O)sn(-c4ccc(C#N)cc4)c3=O)cc1)=C\CC[C@@]1(C)O[C@@H]21 [BSK-263]
[1]; MMB-TDZD analogs (Table 2)
  LD50, 7AAD (μM) 24 h: 0.23 µM
  LD50, Alamar blue (μM) 24 h: 0.75 µM
  LD50, YOPRO (μM) 24 h: 0.13 µM
